Experimental findings from US7358214B2, “Pyrazolyl carboxanilides for controlling unwanted microorganisms” (Bayer CropScience AG, priority 2003, dated 2008) are described below.

As a reminder, the chromatographic logP is a lipophilicity value derived from retention on a column.

Series [1] in a line: logP determination by HPLC on reversed-phase column (C 18), pH 2.3. The class given is physicochemical. The conditions noted are these: reversed-phase HPLC column (C 18), HPLC reversed-phase C 18, 43° C. The procedure: The logP values given in the preparation examples and the tables above are determined in accordance with EEC Directive 79/831 Annex V.A8 by HPLC (High Performance Liquid Chromatography) on a reversed-phase column (C 18). Temperature: 43° C. The determination is carried out in the acidic range at pH 2.3 using the mobile phases 0.1% aqueous phosphoric acid and acetonitrile; linear gradient from 10% acetonitrile to 90% acetonitrile. Calibration is carried out using unbranched alkan-2-ones (having 3 to 16 carbon atoms) with known logP values (determination of the logP values by retention times using linear interpolation between two successive alkanones).

A further series deals with Puccinia recondita. As to the kind of experiment: Puccinia test (wheat)/protective. It is filed as in vivo. The conditions noted are these: application rate 500 g/ha; protective; evaluation 10 days after inoculation. The procedure: • Solvent: 25 parts by weight of N,N-dimethylacetamide • Emulsifier: 0.6 part by weight of alkylaryl polyglycol ether To produce a suitable preparation of active compound, 1 part by weight of active compound is mixed with the stated amounts of solvent and emulsifier, and the concentrate is diluted with water to the desired concentration. To test for protective activity, young plants are sprayed with the preparation of active compound at the stated application rate. After the spray coating has dried on, the plants are sprayed with a conidia suspension of Puccinia recondita. The plants remain in an incubation cabin at 20° C. and 100% relative atmospheric humidity for 48 hours. The plants are then placed in a greenhouse at a temperature of about 20° C. and a relative atmospheric humidity of 80% to promote the development of rust pustules. Evaluation is carried out 10 days after the inoculation. 0% means an efficacy which corresponds to that of the control, whereas an efficacy of 100% means that no infection is observed.

The next series relates to Sphaerotheca fuliginea. As to the kind of experiment: Spaerotheca test (cucumber)/protective. It is filed as in vivo. The conditions noted are these: application rate 100 g/ha; protective; evaluation 7 days after inoculation. The procedure: (§1) [table] To produce a suitable preparation of active compound, 1 part by weight of active compound is mixed with the stated amounts of solvents and emulsifier, and the concentrate is diluted with water to the desired concentration. To test for protective activity, young plants are sprayed with the preparation of active compound at the stated application rate. After the spray coating has dried on, the plants are inoculated with an aqueous spore suspension of Sphaerotheca fuliginea. The plants are then placed in a greenhouse at about 23° C. and a relative atmospheric humidity of about 70%. Evaluation is carried out 7 days after the inoculation. 0% means an efficacy which corresponds to that of the control, whereas an efficacy of 100% means that no infection is observed.

For the next series, the system named is Venturia inaequalis. As to the kind of experiment: Venturia test (apple)/protective. The note with it: application rate 100 g/ha; protective; evaluation 10 days after inoculation. It is filed as in vivo. The protocol:
as §1, with “conidia” for “spore”, “the apple scab pathogen Venturia inaequalis and then remain in an incubation cabin at about 20° C. and 100% relative atmospheric humidity for 1 day.” for “Sphaerotheca fuliginea.”, “21°” for “23°”, “90%.” for “70%.”, “10” for “7”

The next series concerns Botrytis cinerea. As to the kind of experiment: Botrytis test (bean)/protective. The class given is in vivo. The conditions noted are these: application rate 500 g/ha; protective; evaluation two days after inoculation. The protocol:
[table] To produce a suitable preparation of active compound, 1 part by weight of active compound is mixed with the stated amounts of solvents and emulsifier, and the concentrate is diluted with water to the desired concentration. To test for protective activity, young plants are sprayed with the preparation of active compound at the stated application rate. After the spray coating has dried on, 2 small pieces of agar colonized by Botrytis cinerea are placed onto each leaf. The inoculated plants are placed in a dark chamber at about 20° C. and 100% relative atmospheric humidity. Two days after the inoculation, the size of the infected areas on the leaves is evaluated. 0% means an efficacy which corresponds to that of the control, whereas an efficacy of 100% means that no infection is observed.

A further series deals with Alternaria mali. The experiment in a line: In vitro test for the ED50 determination in microorganisms. The note with it: 50% inhibition of fungal growth, 22° C., 3-5 days, photometric at 620 nm. The class given is cell-based. The protocol: A methanolic solution of the active compound to be tested, mixed with emulsifier PS16, is pipetted into the wells of a microtiter plate. After the solvent has evaporated, 200 μl of potato dextrose medium are added to each well. Beforehand, a suitable concentration of spores or mycelium of the fungus to be tested was added to the medium. The resulting concentrations of active compound are 0.1, 1, 10 and 100 ppm. The resulting concentration of the emulsifier is 300 ppm. The plates are then incubated on a shaker at a temperature of 22° C. for 3-5 days, until sufficient growth can be observed in the untreated control. Evaluation is carried out photometrically at a wavelength of 620 nm. The dose of active compound which causes 50% inhibition of fungal growth compared to the untreated control (ED50) is calculated from data measured at different concentrations.

Structures are written as SMILES.

In turn, `CC(CC(C)(C)C)c1ccccc1NC(=O)c1c(C(F)(F)F)nn(C)c1F` (stereo not shown) [Example 1, [5-fluoro-1-methyl-3-(trifluoromethyl)pyrazol-4-yl]-N-[2-(1,3,3-trimethylbutyl)phenyl]carbox-amide] registered a chromatographic logP in series [1] of 4.14.

Molecule `CC(C)CC(C)c1ccccc1NC(=O)c1c(C(F)(F)F)nn(C)c1F` (stereo not shown) [Example 2] had a chromatographic logP in series [1] of 3.88. Still for that read-out and setting: the result for `CCC(C)(C)CC(C)c1ccccc1NC(=O)c1c(C(F)(F)F)nn(C)c1F` (stereo not shown) [Example 3] reads 4.45.

In the case of `CCC(CC(C)C)c1ccccc1NC(=O)c1c(C(F)(F)F)nn(C)c1F` (stereo not shown) [Example 4], in series [1], the chromatographic logP is 4.27. Same read-out and setting: the result for `CC(C)CC(C)c1cc(F)ccc1NC(=O)c1c(C(F)(F)F)nn(C)c1F` (stereo not shown) [Example 5] reads 3.92. Regarding `CC(CC(C)(C)C)c1ccccc1NC(=O)c1c(C(F)(F)F)nn(C)c1F` (stereo not shown) [drawing 30], in the series on Puccinia recondita, the Efficacy in % is 100%.

On to `CC(C)CC(C)c1ccccc1NC(=O)c1c(C(F)(F)F)nn(C)c1F` (stereo not shown) [drawing 31], for which the Efficacy in % in the series with Puccinia recondita worked out at 100%. As for `CC(CC(C)(C)C)c1ccccc1NC(=O)c1c(C(F)(F)F)nn(C)c1F` (stereo not shown) [drawing 32], the Efficacy in % in the series with Sphaerotheca fuliginea is reported as 100%. Consider `CC(C)CC(C)c1ccccc1NC(=O)c1c(C(F)(F)F)nn(C)c1F` (stereo not shown) [drawing 33], for which the Efficacy in % in the series on Sphaerotheca fuliginea was 100%.

`CCC(C)(C)CC(C)c1ccccc1NC(=O)c1c(C(F)(F)F)nn(C)c1F` (stereo not shown) [drawing 34] had an Efficacy in % in the series on Sphaerotheca fuliginea of 98%. In turn, `CC(CC(C)(C)C)c1ccccc1NC(=O)c1c(C(F)(F)F)nn(C)c1F` (stereo not shown) [drawing 35] had an Efficacy in % in the series on Venturia inaequalis of 100%.

In the series on Venturia inaequalis, `CC(C)CC(C)c1ccccc1NC(=O)c1c(C(F)(F)F)nn(C)c1F` (stereo not shown) [drawing 36] showed an Efficacy in % of 100%. In the case of `CCC(C)(C)CC(C)c1ccccc1NC(=O)c1c(C(F)(F)F)nn(C)c1F` (stereo not shown) [drawing 37], in the series with Venturia inaequalis, the Efficacy in % is recorded as 99%. In turn, `CC(CC(C)(C)C)c1ccccc1NC(=O)c1c(C(F)(F)F)nn(C)c1F` (stereo not shown) [drawing 38] yielded an Efficacy in % with Botrytis cinerea of 100%.

In the case of `CC(C)CC(C)c1ccccc1NC(=O)c1c(C(F)(F)F)nn(C)c1F` (stereo not shown) [drawing 39], the Efficacy in % in the series with Botrytis cinerea worked out at 100%. Still for that read-out and setting: with `CCC(C)(C)CC(C)c1ccccc1NC(=O)c1c(C(F)(F)F)nn(C)c1F` (stereo not shown) [drawing 40] the figure was 95%. In the case of `CC(CC(C)(C)C)c1ccccc1NC(=O)c1c(C(F)(F)F)nn(C)c1F` (stereo not shown) [drawing 41], the “ED50 value in ppm” value in the series with Alternaria mali is under 0.1 ppm.

Take `CC(C)CC(C)c1ccccc1NC(=O)c1c(C(F)(F)F)nn(C)c1F` (stereo not shown) [drawing 42]: the “ED50 value in ppm” value with Alternaria mali came out at 0.28 ppm. As for `CCC(C)(C)CC(C)c1ccccc1NC(=O)c1c(C(F)(F)F)nn(C)c1F` (stereo not shown) [drawing 43], the “ED50 value in ppm” value in the series with Alternaria mali is given as under 0.1 ppm.
